{"source": "patent US10550124B2", "about": "“Atropisomerism for increased kinase inhibitor selectivity” (SAN DIEGO STATE UNIVERSITY RESEARCH FOUNDATION, priority 2015, dated 2020)", "type_in_all_cases": "biochemical", "key": {"Yes": {"biological_target": "Yes (Homo sapiens, UniProt P07947)", "sequence (P07947 whole entry)": "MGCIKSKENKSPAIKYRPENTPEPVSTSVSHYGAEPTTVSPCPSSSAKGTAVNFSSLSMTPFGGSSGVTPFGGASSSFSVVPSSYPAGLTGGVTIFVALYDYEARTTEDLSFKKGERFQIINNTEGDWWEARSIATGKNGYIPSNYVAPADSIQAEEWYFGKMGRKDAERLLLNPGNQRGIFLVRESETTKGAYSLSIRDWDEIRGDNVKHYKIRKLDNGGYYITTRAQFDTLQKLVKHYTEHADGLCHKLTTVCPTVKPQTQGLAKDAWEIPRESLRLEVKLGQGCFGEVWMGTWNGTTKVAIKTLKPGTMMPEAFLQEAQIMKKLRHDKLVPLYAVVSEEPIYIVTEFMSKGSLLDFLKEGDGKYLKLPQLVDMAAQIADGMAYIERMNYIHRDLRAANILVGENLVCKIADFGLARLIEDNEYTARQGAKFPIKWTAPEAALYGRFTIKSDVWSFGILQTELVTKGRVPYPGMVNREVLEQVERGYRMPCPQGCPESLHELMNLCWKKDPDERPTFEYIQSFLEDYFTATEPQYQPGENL", "assay": "Z′-LYTE kinase inhibition assay, Yes", "source_text": "(§1) All samples were sent out to Life Technologies to obtain kinase inhibition data. A brief description of the assays and analyses are included below.\n(§2) Assay Theory (SelectScreen® Kinase Profiling Services (Life Technologies, Madison, Wis. USA). The Z′-LYTE® biochemical assay employs a fluorescence-based, coupled-enzyme format and is based on the differential sensitivity of phosphorylated and non-phosphorylated peptides to proteolytic cleavage. The peptide substrate is labeled with two fluorophores one at each end—that make up a FRET pair.\n(§3) In the primary reaction, the kinase transfers the gamma-phosphate of ATP to a single tyrosine, serine or threonine residue in a synthetic FRET-peptide. In the secondary reaction, a site-specific protease recognizes and cleaves non-phosphorylated FRET-peptides.\n(§4) Phosphorylation of FRET-peptides suppresses cleavage by the Development Reagent. Cleavage disrupts FRET between the donor (i.e., coumarin) and acceptor (i.e., fluorescein) fluorophores on the FRET-peptide, whereas uncleaved, phosphorylated FRET-peptides maintain FRET. A ratiometric method, which calculates the ratio (the Emission Ratio) of donor emission to acceptor emission after excitation of the donor fluorophore at 400 nm, is used to quantitate reaction progress, as shown in the equation below: […]\n(§5) A significant benefit of this ratiometric method for quantitating reaction progress is the elimination of well-to-well variations in FRET-peptide concentration and signal intensities. As a result, the assay yields very high Z′-factor values (>0.7) at a low percent phosphorylation. Both cleaved and uncleaved FRET-peptides contribute to the fluorescence signals and therefore to the Emission Ratio. The extent of phosphorylation of the FRET-peptide can be calculated from the Emission Ratio. The Emission Ratio will remain low if the FRET-peptide is phosphorylated (i.e., no kinase inhibition) and will he high if the FRET-peptide is non-phosphorylated (i.e., kinase inhibition)."}, "Her-2": {"biological_target": "Her-2 (Homo sapiens, UniProt P04626)", "assay": "Z′-LYTE kinase inhibition assay, Her-2", "settings": "average of 2 runs", "source_text": "as §1, §2, §3, §4, §5"}, "Lyn": {"biological_target": "Lyn (Homo sapiens, UniProt P07948)", "sequence (P07948 whole entry)": "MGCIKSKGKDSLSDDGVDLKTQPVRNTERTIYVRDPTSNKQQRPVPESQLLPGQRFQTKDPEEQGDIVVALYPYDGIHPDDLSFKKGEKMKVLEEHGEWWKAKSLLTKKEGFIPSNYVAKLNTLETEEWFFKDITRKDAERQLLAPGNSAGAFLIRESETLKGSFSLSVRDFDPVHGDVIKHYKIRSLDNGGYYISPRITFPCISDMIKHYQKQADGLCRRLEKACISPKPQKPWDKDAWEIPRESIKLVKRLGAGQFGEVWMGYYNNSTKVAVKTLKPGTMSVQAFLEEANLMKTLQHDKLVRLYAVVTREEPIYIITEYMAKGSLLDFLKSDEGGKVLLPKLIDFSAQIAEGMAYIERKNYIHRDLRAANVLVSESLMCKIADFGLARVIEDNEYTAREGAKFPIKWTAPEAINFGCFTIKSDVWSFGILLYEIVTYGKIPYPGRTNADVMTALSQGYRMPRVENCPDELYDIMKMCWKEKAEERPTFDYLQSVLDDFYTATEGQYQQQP", "assay": "Z′-LYTE kinase inhibition assay, Lyn", "settings": "average of 2 runs", "source_text": "as §1, §2, §3, §4, §5"}, "Kit": {"biological_target": "Kit (Homo sapiens, UniProt P10721)", "assay": "Z′-LYTE kinase inhibition assay, Kit", "settings": "average of 2 runs", "source_text": "as §1, §2, §3, §4, §5"}, "EGFR": {"biological_target": "EGFR (Homo sapiens, UniProt P00533)", "sequence (P00533 25-1210)": "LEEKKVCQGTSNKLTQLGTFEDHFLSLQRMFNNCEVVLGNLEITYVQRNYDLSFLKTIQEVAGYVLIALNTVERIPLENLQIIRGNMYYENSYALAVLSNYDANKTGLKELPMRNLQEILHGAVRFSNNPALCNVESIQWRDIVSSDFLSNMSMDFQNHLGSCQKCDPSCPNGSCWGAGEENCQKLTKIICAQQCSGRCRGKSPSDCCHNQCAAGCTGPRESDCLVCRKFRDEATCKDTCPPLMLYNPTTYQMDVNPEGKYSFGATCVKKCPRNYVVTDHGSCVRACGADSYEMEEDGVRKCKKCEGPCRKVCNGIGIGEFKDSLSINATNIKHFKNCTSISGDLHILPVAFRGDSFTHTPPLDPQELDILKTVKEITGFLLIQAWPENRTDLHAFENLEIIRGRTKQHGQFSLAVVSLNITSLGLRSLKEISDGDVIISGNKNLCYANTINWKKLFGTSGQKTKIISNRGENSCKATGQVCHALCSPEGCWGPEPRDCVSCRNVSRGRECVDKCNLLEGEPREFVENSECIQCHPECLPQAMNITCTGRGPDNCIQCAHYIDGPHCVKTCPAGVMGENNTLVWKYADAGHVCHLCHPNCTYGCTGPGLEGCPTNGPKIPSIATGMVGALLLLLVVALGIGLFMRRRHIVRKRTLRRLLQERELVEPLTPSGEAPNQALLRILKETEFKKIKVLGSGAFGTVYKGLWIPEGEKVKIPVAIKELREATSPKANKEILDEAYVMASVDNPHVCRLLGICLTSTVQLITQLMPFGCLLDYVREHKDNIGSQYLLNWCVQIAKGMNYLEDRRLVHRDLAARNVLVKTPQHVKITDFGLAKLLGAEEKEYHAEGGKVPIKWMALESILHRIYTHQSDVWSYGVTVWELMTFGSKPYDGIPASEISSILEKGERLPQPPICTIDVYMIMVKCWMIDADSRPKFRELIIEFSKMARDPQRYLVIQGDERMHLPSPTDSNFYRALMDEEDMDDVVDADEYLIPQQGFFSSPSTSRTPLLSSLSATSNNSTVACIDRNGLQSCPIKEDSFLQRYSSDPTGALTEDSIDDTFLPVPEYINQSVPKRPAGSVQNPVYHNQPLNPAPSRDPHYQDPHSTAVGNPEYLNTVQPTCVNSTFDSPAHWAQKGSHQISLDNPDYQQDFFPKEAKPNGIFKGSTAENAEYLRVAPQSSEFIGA", "assay": "Z′-LYTE kinase inhibition assay, EGFR", "source_text": "as §1, §2, §3, §4, §5"}, "BTK": {"biological_target": "BTK (Homo sapiens, UniProt Q06187)", "assay": "Z′-LYTE kinase inhibition assay, BTK", "settings": "average of 2 runs", "source_text": "as §1, §2, §3, §4, §5"}, "Abl": {"biological_target": "Abl (Homo sapiens, UniProt P00519)", "sequence (P00519 whole entry)": "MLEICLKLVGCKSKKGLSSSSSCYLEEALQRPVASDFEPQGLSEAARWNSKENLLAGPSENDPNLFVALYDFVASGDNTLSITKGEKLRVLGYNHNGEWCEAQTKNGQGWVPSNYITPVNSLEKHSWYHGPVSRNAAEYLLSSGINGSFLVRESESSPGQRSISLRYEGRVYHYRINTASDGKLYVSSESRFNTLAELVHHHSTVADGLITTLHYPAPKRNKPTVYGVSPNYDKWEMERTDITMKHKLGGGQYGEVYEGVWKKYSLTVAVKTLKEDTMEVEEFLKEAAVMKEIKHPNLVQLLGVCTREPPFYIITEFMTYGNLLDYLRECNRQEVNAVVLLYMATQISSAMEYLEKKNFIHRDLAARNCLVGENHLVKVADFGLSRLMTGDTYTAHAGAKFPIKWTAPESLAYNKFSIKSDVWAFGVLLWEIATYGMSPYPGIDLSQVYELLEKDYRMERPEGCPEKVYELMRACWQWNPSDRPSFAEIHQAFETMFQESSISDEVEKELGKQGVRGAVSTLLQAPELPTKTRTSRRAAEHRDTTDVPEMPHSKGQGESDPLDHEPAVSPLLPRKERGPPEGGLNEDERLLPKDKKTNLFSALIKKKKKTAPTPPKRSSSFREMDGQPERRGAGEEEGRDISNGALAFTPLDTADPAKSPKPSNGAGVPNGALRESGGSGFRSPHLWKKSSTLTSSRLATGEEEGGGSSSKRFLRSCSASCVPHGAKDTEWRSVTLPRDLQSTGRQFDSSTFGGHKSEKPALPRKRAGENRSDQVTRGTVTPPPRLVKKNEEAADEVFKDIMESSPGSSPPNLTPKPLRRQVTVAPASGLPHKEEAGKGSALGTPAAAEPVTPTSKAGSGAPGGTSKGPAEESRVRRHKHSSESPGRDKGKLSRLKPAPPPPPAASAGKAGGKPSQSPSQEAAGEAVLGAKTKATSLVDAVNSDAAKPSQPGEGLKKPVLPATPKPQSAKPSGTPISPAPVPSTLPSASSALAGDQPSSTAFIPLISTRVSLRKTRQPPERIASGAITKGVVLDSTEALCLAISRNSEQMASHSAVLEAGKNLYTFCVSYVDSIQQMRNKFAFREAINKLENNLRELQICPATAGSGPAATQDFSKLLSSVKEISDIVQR", "assay": "Z′-LYTE kinase inhibition assay, Abl", "source_text": "as §1, §2, §3, §4, §5"}, "Blk": {"biological_target": "Blk (Homo sapiens, UniProt P51451)", "sequence (P51451 whole entry)": "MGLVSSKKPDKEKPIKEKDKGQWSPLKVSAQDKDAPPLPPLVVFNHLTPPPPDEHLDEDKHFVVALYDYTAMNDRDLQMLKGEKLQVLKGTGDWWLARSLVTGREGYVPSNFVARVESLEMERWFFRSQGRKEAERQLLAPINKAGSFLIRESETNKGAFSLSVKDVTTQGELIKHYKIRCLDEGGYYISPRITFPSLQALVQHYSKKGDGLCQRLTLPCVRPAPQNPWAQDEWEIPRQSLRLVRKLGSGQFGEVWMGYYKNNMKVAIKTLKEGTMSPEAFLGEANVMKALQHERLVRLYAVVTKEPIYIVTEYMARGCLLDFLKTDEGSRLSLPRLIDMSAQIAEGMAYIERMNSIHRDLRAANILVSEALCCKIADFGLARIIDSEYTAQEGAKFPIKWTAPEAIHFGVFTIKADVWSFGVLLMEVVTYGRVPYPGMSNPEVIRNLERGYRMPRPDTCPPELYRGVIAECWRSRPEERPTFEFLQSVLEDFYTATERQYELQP", "assay": "Z′-LYTE kinase inhibition assay, Blk", "settings": "average of 2 runs", "source_text": "as §1, §2, §3, §4, §5"}, "Fyn": {"biological_target": "Fyn (Homo sapiens, UniProt P06241)", "assay": "Z′-LYTE kinase inhibition assay, Fyn", "settings": "average of 2 runs", "source_text": "as §1, §2, §3, §4, §5"}, "pdgfr-a": {"biological_target": "pdgfr-a (Homo sapiens, UniProt P16234)", "assay": "Z′-LYTE kinase inhibition assay, pdgfr-a", "settings": "average of 2 runs", "source_text": "as §1, §2, §3, §4, §5"}, "pdgfr-b": {"biological_target": "pdgfr-b (Homo sapiens, UniProt P09619)", "assay": "Z′-LYTE kinase inhibition assay, pdgfr-b", "settings": "average of 2 runs", "source_text": "as §1, §2, §3, §4, §5"}, "Hck": {"biological_target": "Hck (Homo sapiens, UniProt P08631)", "assay": "Z′-LYTE kinase inhibition assay, Hck", "settings": "average of 2 runs", "source_text": "as §1, §2, §3, §4, §5"}, "CSK": {"biological_target": "CSK (Homo sapiens, UniProt P41240)", "assay": "Z′-LYTE kinase inhibition assay, CSK", "settings": "average of 2 runs", "source_text": "as §1, §2, §3, §4, §5"}, "Fgr": {"biological_target": "Fgr (Homo sapiens, UniProt P09769)", "assay": "Z′-LYTE kinase inhibition assay, Fgr", "settings": "average of 2 runs", "source_text": "as §1, §2, §3, §4, §5"}, "Alk": {"biological_target": "Alk (Homo sapiens, UniProt Q9UM73)", "assay": "Z′-LYTE kinase inhibition assay, Alk", "settings": "average of 2 runs", "source_text": "as §1, §2, §3, §4, §5"}, "Lck": {"biological_target": "Lck (Homo sapiens, UniProt P06239)", "assay": "Z′-LYTE kinase inhibition assay, Lck", "settings": "average of 2 runs", "source_text": "as §1, §2, §3, §4, §5"}, "Src kinase": {"biological_target": "Src kinase (Homo sapiens, UniProt P12931)", "assay": "Z′-LYTE kinase inhibition assay, Src", "source_text": "Based on the observed stereochemical stabilities, we chose 1f, 2e, and 2f for further study and obtained inhibition data against Src kinase from Life Technologies' Z′-LYTE™ kinase assay (Scheme 3).\nas §1, §2, §3, §4, §5"}, "[1]": {"test_system": "panel of 18 tyrosine kinases", "assay": "Kinase inhibitor profiling across a panel of tyrosine kinases (selectivity)", "settings": "for S(40%): number of kinases inhibited greater than 40% divided by number of kinases tested (including Src)", "experimental": "In order to probe the effect of atropisomeric conformation on kinase selectivity we subjected 1f, 2e, and 2f to kinase inhibitor profiling across a panel of tyrosine kinases at 1000 nM and 5000 nM (data for 2e shown in Scheme 4 below).\nTo analyze each analog's selectivity across the panel we turned to selectivity scores (Davis et al., Nat. Biotechnol. 2011, 29, 1046-51), simply the number of kinases inhibited above a certain threshold divided by the number of kinases evaluated. […] For example at 1000 nM 2e-(R) yielded an S(40%) of 0.11 while 2e-(S) gave an S(40%) of 0.16. […] Differences in selectivity between 2e-(R) and 2e-(S) at 5000 nM (4.5 times the IC50 of 2e-(S) toward Src) and for 5 at 1000 nM (6.25 times the IC50 of 5 toward Src) can be viewed graphically across tyrosine kinases (FIG. 3). Importantly, similar trends were also observed across each of the atropisomeric series tested.\nas §1, §2, §3, §4, §5"}, "Ret": {"biological_target": "Ret (Homo sapiens, UniProt P07949)", "sequence (P07949 29-1114)": "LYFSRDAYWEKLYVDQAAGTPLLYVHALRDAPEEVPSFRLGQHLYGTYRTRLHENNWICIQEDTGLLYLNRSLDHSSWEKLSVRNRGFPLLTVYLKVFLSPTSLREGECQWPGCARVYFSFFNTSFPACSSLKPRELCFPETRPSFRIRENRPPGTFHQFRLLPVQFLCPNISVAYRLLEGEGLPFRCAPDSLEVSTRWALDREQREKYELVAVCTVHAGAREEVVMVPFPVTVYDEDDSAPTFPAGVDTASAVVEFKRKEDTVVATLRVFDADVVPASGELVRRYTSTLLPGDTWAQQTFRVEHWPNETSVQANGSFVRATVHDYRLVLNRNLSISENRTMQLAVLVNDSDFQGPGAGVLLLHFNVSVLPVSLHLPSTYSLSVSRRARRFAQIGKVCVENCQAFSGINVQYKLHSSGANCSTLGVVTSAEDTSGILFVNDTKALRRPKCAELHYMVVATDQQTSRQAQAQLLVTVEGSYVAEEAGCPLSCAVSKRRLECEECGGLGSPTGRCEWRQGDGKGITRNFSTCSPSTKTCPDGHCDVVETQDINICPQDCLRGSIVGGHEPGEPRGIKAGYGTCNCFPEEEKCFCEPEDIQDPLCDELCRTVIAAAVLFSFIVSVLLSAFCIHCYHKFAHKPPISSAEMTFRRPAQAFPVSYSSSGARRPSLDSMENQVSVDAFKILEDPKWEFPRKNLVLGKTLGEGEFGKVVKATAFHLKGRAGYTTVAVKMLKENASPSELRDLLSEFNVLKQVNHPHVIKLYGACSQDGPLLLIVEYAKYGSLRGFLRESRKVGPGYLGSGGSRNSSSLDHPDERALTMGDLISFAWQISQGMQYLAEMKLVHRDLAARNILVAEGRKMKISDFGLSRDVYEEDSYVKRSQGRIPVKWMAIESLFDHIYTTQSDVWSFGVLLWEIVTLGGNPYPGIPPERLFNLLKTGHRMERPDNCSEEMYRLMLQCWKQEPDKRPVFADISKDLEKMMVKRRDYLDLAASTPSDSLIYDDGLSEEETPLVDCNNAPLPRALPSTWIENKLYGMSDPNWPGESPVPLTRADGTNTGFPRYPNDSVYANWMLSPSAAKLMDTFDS", "assay": "Z′-LYTE kinase inhibition assay, Ret", "source_text": "as §1, §2, §3, §4, §5"}}, "note": "Where “and” joins values, the source holds several entries; their conditions need not be identical. Equal entries are not always repeated."}
{"smiles": "COc1cccc(-c2cn(C(C)(C)C)c3ncnc(N)c23)c1", "note": "[Compound 5, reference compound]", "values": [{"measurement": "IC50 of Kinase/IC50 of Yes", "setting": "Yes; Yes relative to Yes", "result": 1}, {"measurement": "inhibition at 0.2 µM", "setting": "Yes; Yes, 200 nM, average of 2 runs", "result": 63, "unit": "%"}, {"measurement": "inhibition at 1 µM", "setting": "Yes; Yes, 1000 nM, average of 2 runs", "result": 90, "unit": "%"}, {"measurement": "IC50", "setting": "Yes; Yes, error is standard deviation", "result": 92, "unit": "nM"}, {"measurement": "inhibition at 0.2 µM", "setting": "Her-2; 200 nM", "result": 4, "unit": "%"}, {"measurement": "inhibition at 1 µM", "setting": "Her-2; 1000 nM", "result": 16, "unit": "%"}, {"measurement": "inhibition at 0.2 µM", "setting": "Lyn; 200 nM", "result": 58, "unit": "%"}, {"measurement": "inhibition at 1 µM", "setting": "Lyn; 1000 nM", "result": 85, "unit": "%"}, {"measurement": "inhibition at 0.2 µM", "setting": "Kit; 200 nM", "result": 8, "unit": "%"}, {"measurement": "inhibition at 1 µM", "setting": "Kit; 1000 nM", "result": 27, "unit": "%"}, {"measurement": "IC50 of Kinase/IC50 of Yes", "setting": "EGFR; EGFR relative to Yes", "result": "7 and 6.96"}, {"measurement": "inhibition at 0.2 µM", "setting": "EGFR; EGFR, 200 nM, average of 2 runs", "result": 28, "unit": "%"}, {"measurement": "inhibition at 1 µM", "setting": "EGFR; EGFR, 1000 nM, average of 2 runs", "result": 62, "unit": "%"}, {"measurement": "IC50", "setting": "EGFR; EGFR, error is standard deviation", "result": 641, "unit": "nM"}, {"measurement": "inhibition at 0.2 µM", "setting": "BTK; 200 nM", "result": 62, "unit": "%"}, {"measurement": "inhibition at 1 µM", "setting": "BTK; 1000 nM", "result": 90, "unit": "%"}, {"measurement": "IC50 of Kinase/IC50 of Yes", "setting": "Abl; Abl relative to Yes", "result": 2.65}, {"measurement": "inhibition at 0.2 µM", "setting": "Abl; Abl, 200 nM, average of 2 runs", "result": 37, "unit": "%"}, {"measurement": "inhibition at 1 µM", "setting": "Abl; Abl, 1000 nM, average of 2 runs", "result": 78, "unit": "%"}, {"measurement": "IC50", "setting": "Abl; Abl, error is standard deviation", "result": 244, "unit": "nM"}, {"measurement": "inhibition at 0.2 µM", "setting": "Blk; 200 nM", "result": 38, "unit": "%"}, {"measurement": "inhibition at 1 µM", "setting": "Blk; 1000 nM", "result": 74, "unit": "%"}, {"measurement": "inhibition at 0.2 µM", "setting": "Fyn; 200 nM", "result": 56, "unit": "%"}, {"measurement": "inhibition at 1 µM", "setting": "Fyn; 1000 nM", "result": 84, "unit": "%"}, {"measurement": "inhibition at 0.2 µM", "setting": "pdgfr-a; 200 nM", "result": 11, "unit": "%"}, {"measurement": "inhibition at 1 µM", "setting": "pdgfr-a; 1000 nM", "result": 34, "unit": "%"}, {"measurement": "inhibition at 0.2 µM", "setting": "pdgfr-b; 200 nM", "result": 6, "unit": "%"}, {"measurement": "inhibition at 1 µM", "setting": "pdgfr-b; 1000 nM", "result": 19, "unit": "%"}, {"measurement": "inhibition at 0.2 µM", "setting": "Hck; 200 nM", "result": 59, "unit": "%"}, {"measurement": "inhibition at 1 µM", "setting": "Hck; 1000 nM", "result": 80, "unit": "%"}, {"measurement": "inhibition at 0.2 µM", "setting": "CSK; 200 nM", "result": 36, "unit": "%"}, {"measurement": "inhibition at 1 µM", "setting": "CSK; 1000 nM", "result": 65, "unit": "%"}, {"measurement": "inhibition at 0.2 µM", "setting": "Fgr; 200 nM", "result": 69, "unit": "%"}, {"measurement": "inhibition at 1 µM", "setting": "Fgr; 1000 nM", "result": 92, "unit": "%"}, {"measurement": "inhibition at 0.2 µM", "setting": "Alk; 200 nM", "result": 11, "unit": "%"}, {"measurement": "inhibition at 1 µM", "setting": "Alk; 1000 nM", "result": 23, "unit": "%"}, {"measurement": "inhibition at 0.2 µM", "setting": "Lck; 200 nM", "result": 32, "unit": "%"}, {"measurement": "inhibition at 1 µM", "setting": "Lck; 1000 nM", "result": 79, "unit": "%"}, {"measurement": "IC50 of Kinase/IC50 of Yes", "setting": "Src kinase; Src relative to Yes", "result": 1.64}, {"measurement": "IC50", "setting": "Src kinase; Src, error is standard deviation", "result": 151, "unit": "nM"}, {"measurement": "S(40%)", "setting": "[1]; 200 nM", "result": 0.44}, {"measurement": "S(40%)", "setting": "[1]; 1000 nM", "result": 0.72}, {"measurement": "relative selectivities favoring Yes (IC50 kinase/IC50 YES) over Ret, Src, and Abl", "setting": "[1]; Ret, Src, Abl vs Yes", "result": "1.4-2.65 fold"}, {"measurement": "IC50 of Kinase/IC50 of Yes", "setting": "Ret; Ret relative to Yes", "result": 1.4}, {"measurement": "inhibition at 0.2 µM", "setting": "Ret; Ret, 200 nM, average of 2 runs", "result": 59, "unit": "%"}, {"measurement": "inhibition at 1 µM", "setting": "Ret; Ret, 1000 nM, average of 2 runs", "result": 89, "unit": "%"}, {"measurement": "IC50", "setting": "Ret; Ret, error is standard deviation", "result": 128, "unit": "nM"}]}
